Measurements taken from PMC12655371.

Assay: derived from PAMPA membrane permeability
Conditions: n-hexadecane (PAMPA-derived); buffer (PAMPA)

SMILES	hexadecane/water partition coefficient derived from PAMPA flux (Khex/w)
c1ccc2c(c1)Sc1ccccc1N2CC1CN2CCC1CC2 (stereo not drawn)	2951 K (ratio)
Clc1ccc2c(c1)CCc1cccnc1C2=C1CCNCC1	99.11 K (ratio)
Cc1c(O)cccc1C(=O)N[C@@H](CSc1ccccc1)[C@H](O)CN1C[C@H]2CCCC[C@H]2C[C@H]1C(=O)NC(C)(C)C	0.398 K (ratio)
CC(C)(C)c1ccc(C(O)CCCN2CCC(C(O)(c3ccccc3)c3ccccc3)CC2)cc1 (stereo not drawn)	34105.6131886465 K (ratio)
CN1CCC[C@@H]1Cc1c[nH]c2ccc(CCS(=O)(=O)c3ccccc3)cc12	1.2 K (ratio)
CC(C)CN(C[C@@H](O)[C@H](Cc1ccccc1)NC(=O)O[C@H]1CCOC1)S(=O)(=O)c1ccc(N)cc1	0.01885 K (ratio)
